Measured values reported in patent publication US11596639B2, “Substituted indole Mcl-1 inhibitors” (Vanderbilt University, priority 2016, dated 2023).
Read-outs that look alike come from different tables or passages of the source.

Assays:
[1] = tested on: H929 human cancer cell lines; test: Cellular viability / proliferation (Cell TiterGlo, 72 h); assay type: cell-based
Outline: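 Cells were seeded at 1,000 cells/well in medium with 10% FBS and dosed 24 h later with a 2-fold serial dilution of compound (top concentration 50 μM, final DMSO <1%).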

Mcl-1 = Mcl-1 (Homo sapiens (Human), UniProt Q07820); test: Fluorescence polarization anisotropy (FPA) competition assay, FITC-Bak or FITC-Bim BH3 peptide; assay type: binding; settings: read-out: Ki for Inhibition of Mcl-1 by FPA assay
[2] = Homo sapiens, NCI-H929, 72 h, read-out: GI50 on cellular proliferation of H929 human cancer cell lines, H929 cells, 72 h, Cell TiterGlo, 10% FBS

Chain of Mcl-1 (Q07820 172-327): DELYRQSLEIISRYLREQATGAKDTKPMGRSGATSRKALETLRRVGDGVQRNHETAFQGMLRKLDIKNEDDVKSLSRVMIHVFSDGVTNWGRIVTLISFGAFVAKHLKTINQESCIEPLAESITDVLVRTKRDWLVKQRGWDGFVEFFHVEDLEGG

Cc1cc(N2C[C@@H](C)n3c(c(CCCOc4cc(C)c(Cl)c(C)c4)c4ccc(Cl)c(-c5c(C)nn(C)c5C)c43)C2=O)c2c(c1)cc(C(=O)O)n2Cc1ccccn1 [Example 295, 7-[(4R)-7-chloro-10-[3-(4-chloro-3,5-dimethyl-phenoxy)propyl]-4-methyl-1-oxo-6-(1,3,5-trimethylpyrazol-4-yl)-3,4-dihydropyrazino[1,2-a]indol-2-yl]-5-methyl-1-(2-pyridylmethyl)indole-2-carboxylic acid]
GI50 [1, 2]: < 200 nM | Ki (Mcl-1): < 1 nM

Cc1cc(OCCCc2c3n(c4c(-c5c(C)nn(C)c5C)c(Cl)ccc24)CCCN(c2cc(C(=O)O)c4cnn(CCN(C)C)c4c2)C3=O)cc(C)c1Cl [Example 30, 6-[8-Chloro-11-[3-(4-chloro-3,5-dimethyl-phenoxy)propyl]-1-oxo-7-(1,3,5-trimethylpyrazol-4-yl)-4,5-dihydro-3H-[1,4]diazepino[1,2-a]indol-2-yl]-1-[2-(dimethylamino)ethyl]indazole-4-carboxylic acid]
GI50 [1, 2]: 5400 nM | Ki (Mcl-1): 1.2 nM

Cc1cc(OCCCc2c3n(c4c(-c5c(C)nn(C)c5C)c(Cl)ccc24)CCCN(c2cc(C(=O)O)cc4c2ccn4CCN(C)C)C3=O)cc(C)c1Cl [Example 11, 4-(8-Chloro-11-(3-(4-chloro-3,5-dimethylphenoxy)propyl)-1-oxo-7-(1,3,5-trimethyl-1H-pyrazol-4-yl)-4,5-dihydro-1H-[1,4]diazepino[1,2-a]indol-2(3H)-yl)-1-(2-(dimethylamino)ethyl)-1H-indole-6-carboxylic acid]
GI50 [1, 2]: 9900 nM | Ki (Mcl-1): 4 nM

Cc1cc(OCCCc2c3n(c4c(-c5c(C)nn(C)c5C)c(Cl)ccc24)[C@H](C)CN(c2cn(C)c4c(C#N)cc(C(=O)O)cc24)C3=O)cc(C)c1Cl [Example 244, (R)-3-(7-Chloro-10-(3-(4-chloro-3,5-dimethylphenoxy)propyl)-4-methyl-1-oxo-6-(1,3,5-trimethyl-1H-pyrazol-4-yl)-3,4-dihydropyrazino[1,2-a]indol-2(1H)-yl)-7-cyano-1-methyl-1H-indole-5-carboxylic acid]
GI50 [1, 2]: 400 nM | Ki (Mcl-1): < 1 nM

CCn1nc(C(=O)O)c2cccc(N3C[C@@H](C)n4c(c(CCCOc5cc(C)c(Cl)c(C)c5)c5ccc(Cl)c(-c6c(C)nn(C)c6C)c54)C3=O)c21 [Example 118, (R)-7-(7-chloro-10-(3-(4-chloro-3,5-dimethylphenoxy)propyl)-4-methyl-1-oxo-6-(1,3,5-trimethyl-1H-pyrazol-4-yl)-3,4-dihydropyrazino[1,2-a]indol-2(1H)-yl)-1-ethyl-1H-indazole-3-carboxylic acid]
GI50 [1, 2]: 820 nM | Ki (Mcl-1): < 1 nM

Cc1cc(OCCCc2c3n(c4c(-c5c(C)nn(C)c5C)c(Cl)ccc24)[C@H](C)CN(c2cc(CN4CCCC4)cc4cc(C(=O)O)n(C)c24)C3=O)cc(C)c1Cl [Example 401, (R)-7-(7-chloro-10-(3-(4-chloro-3,5-dimethylphenoxy)propyl)-4-methyl-1-oxo-6-(1,3,5-trimethyl-1H-pyrazol-4-yl)-3,4-dihydropyrazino[1,2-a]indol-2(1H)-yl)-1-methyl-5-(pyrrolidin-1-ylmethyl)-1H-indole-2-carboxylic acid]
GI50 [1, 2]: 280 nM | Ki (Mcl-1): < 1 nM

Cc1cc(OCCCc2c3n(c4c(-c5c(C)nn(C)c5C)c(Cl)ccc24)[C@H](C)CN(c2cn(C)c4cc(-c5nnn(C)n5)ccc24)C3=O)cc(C)c1Cl [Example 370, (R)-7-Chloro-10-(3-(4-chloro-3,5-dimethylphenoxy)propyl)-4-methyl-2-(1-methyl-6-(2-methyl-2H-tetrazol-5-yl)-1H-indol-3-yl)-6-(1,3,5-trimethyl-1H-pyrazol-4-yl)-3,4-dihydropyrazino[1,2-a]indol-1(2H)-one]
GI50 [1, 2]: 4500 nM | Ki (Mcl-1): 2.8 nM

Cc1cc(OCCCc2c3n(c4c(-c5c(C)nn(C)c5C)c(Cl)ccc24)[C@H](C)CN(c2cc(C(=O)O)c4ccccc4c2)C3=O)cc(C)c1Cl [Example 188, (R)-3-(7-Chloro-10-(3-(4-chloro-3,5-dimethylphenoxy)propyl)-4-methyl-1-oxo-6-(1,3,5-trimethyl-1H-pyrazol-4-yl)-3,4-dihydropyrazino[1,2-a]indol-2(1H)-yl)-1-naphthoic acid]
GI50 [1, 2]: 2700 nM | Ki (Mcl-1): 6.4 nM

Cc1cc(OCCCc2c3n(c4c(-c5c(C)nn(C)c5C)c(Cl)ccc24)[C@H](C)CN(c2cc(C(=O)O)cc4c2OCCO4)C3=O)cc(C)c1Cl [Example 26, (R)-8-(7-chloro-10-(3-(4-chloro-3,5-dimethylphenoxy)propyl)-4-methyl-1-oxo-6-(1,3,5-trimethyl-1H-pyrazol-4-yl)-3,4-dihydropyrazino[1,2-a]indol-2(1H)-yl)-2,3-dihydrobenzo[b][1,4]dioxine-6-carboxylic acid]
GI50 [1, 2]: 830 nM | Ki (Mcl-1): 1.3 nM

Cc1cc(OCCCc2c3n(c4c(-c5c(C)ncnc5C)c(Cl)ccc24)[C@H](C)CN(c2cccc4cc(C(=O)O)cnc24)C3=O)cc(C)c1Cl [Example 227, 8-[(4R)-7-chloro-10-[3-(4-chloro-3,5-dimethyl-phenoxy)propyl]-6-(4,6-dimethylpyrimidin-5-yl)-4-methyl-1-oxo-3,4-dihydropyrazino[1,2-a]indol-2-yl]quinoline-3-carboxylic acid]
GI50 [1, 2]: 1300 nM | Ki (Mcl-1): < 1 nM

Cc1cc(OCCCc2c3n(c4c(-c5c(C)n[nH]c5C)c(Cl)ccc24)CCCN(c2cccc4cccnc24)C3=O)cc(C)c1Cl [Example 150, 8-Chloro-11-(3-(4-chloro-3,5-dimethylphenoxy)propyl)-7-(3,5-dimethyl-1H-pyrazol-4-yl)-2-(quinolin-8-yl)-2,3,4,5-tetrahydro-1H-[1,4]diazepino[1,2-a]indol-1-one]
GI50 ([1]; H929 cells, 72 h, Cell TiterGlo, 10% FBS, read-out: GI50 on cellular proliferation of H929 human cancer cell lines): 5100 nM | Ki (Mcl-1): 13 nM

Cc1cc(OCCCc2c3n(c4c(-c5c(C)nn(C)c5C)c(Cl)ccc24)[C@H](C)CN(c2cccc4c(C(=O)O)cn(C)c24)C3=O)cc(C)c1Cl [Example 215, (R)-7-(7-chloro-10-(3-(4-chloro-3,5-dimethylphenoxy)propyl)-4-methyl-1-oxo-6-(1,3,5-trimethyl-1H-pyrazol-4-yl)-3,4-dihydropyrazino[1,2-a]indol-2(1H)-yl)-1-methyl-1H-indole-3-carboxylic acid]
GI50 ([1]; read-out: GI50 on cellular proliferation of H929 human cancer cell lines, H929 cells, 72 h, Cell TiterGlo, 10% FBS): 430 nM | Ki (Mcl-1): < 1 nM

Cc1cc(OCCCc2c3n(c4c(-c5c(C)nn(C)c5C)c(Cl)ccc24)[C@H](C)CN(c2cn(C)c4ccc(C(=O)Nc5ccccn5)cc24)C3=O)cc(C)c1Cl [Example 280, 3-[(4R)-7-chloro-10-[3-(4-chloro-3,5-dimethyl-phenoxy)propyl]-4-methyl-1-oxo-6-(1,3,5-trimethylpyrazol-4-yl)-3,4-dihydropyrazino[1,2-a]indol-2-yl]-1-methyl-N-(2-pyridyl)indole-5-carboxamide]
GI50 [1, 2]: 2200 nM | Ki (Mcl-1): 1.5 nM

Cc1cc(OCCCc2c3n(c4c(-c5c(C)nn(C)c5C)c(Cl)ccc24)[C@H](C)CN(c2cccc4c2CCC4=O)C3=O)cc(C)c1Cl [Example 203, (R)-7-Chloro-10-(3-(4-chloro-3,5-dimethylphenoxy)propyl)-4-methyl-2-(1-oxo-2,3-dihydro-1H-inden-4-yl)-6-(1,3,5-trimethyl-1H-pyrazol-4-yl)-3,4-dihydropyrazino[1,2-a]indol-1(2H)-one]
GI50 [1, 2]: 3900 nM | Ki (Mcl-1): 6 nM

Cc1cc(OCCCc2c3n(c4c(-c5c(C)nn(C)c5C)c(Cl)ccc24)[C@H](C)CN(c2cn(C)c4ccc(-c5nnnn5C)cc24)C3=O)cc(C)c1Cl [Example 358, (R)-7-Chloro-10-(3-(4-chloro-3,5-dimethylphenoxy)propyl)-4-methyl-2-(1-methyl-5-(1-methyl-1H-tetrazol-5-yl)-1H-indol-3-yl)-6-(1,3,5-trimethyl-1H-pyrazol-4-yl)-3,4-dihydropyrazino[1,2-a]indol-1(2H)-one]
GI50 [1, 2]: 2300 nM | Ki (Mcl-1): 4.2 nM

Cc1cc(OCCCc2c3n(c4c(-c5c(C)nn(C)c5C)c(Cl)ccc24)[C@H](C)CN(c2cccc4cc(C#N)n(C)c24)C3=O)cc(C)c1Cl [Example 300, 7-[(4R)-7-chloro-10-[3-(4-chloro-3,5-dimethyl-phenoxy)propyl]-4-methyl-1-oxo-6-(1,3,5-trimethylpyrazol-4-yl)-3,4-dihydropyrazino[1,2-a]indol-2-yl]-1-methyl-indole-2-carbonitrile]
GI50 [1, 2]: 5900 nM | Ki (Mcl-1): 2 nM

Cc1cc(OCCCc2c3n(c4c(-c5c(C)nn(C)c5C)c(Cl)ccc24)[C@H](C)CN(c2ccc4cc(C(=O)O)n(C)c4c2)C3=O)cc(C)c1Cl [Example 110, (R)-6-(7-Chloro-10-(3-(4-chloro-3,5-dimethylphenoxy)propyl)-4-methyl-1-oxo-6-(1,3,5-trimethyl-1H-pyrazol-4-yl)-3,4-dihydropyrazino[1,2-a]indol-2(1H)-yl)-1-methyl-1H-indole-2-carboxylic acid]
GI50 [1, 2]: 790 nM | Ki (Mcl-1): < 1 nM

Cc1cc(OCCCc2c3n(c4c(-c5c(C)nn(C)c5C)c(Cl)ccc24)[C@H](C)CN(c2cccc4c(C(=O)O)cn(Cc5ccccn5)c24)C3=O)cc(C)c1Cl [Example 468, (R)-7-(7-Chloro-10-(3-(4-chloro-3,5-dimethylphenoxy)propyl)-4-methyl-1-oxo-6-(1,3,5-trimethyl-1H-pyrazol-4-yl)-3,4-dihydropyrazino[1,2-a]indol-2(1H)-yl)-1-(pyridin-2-ylmethyl)-1H-indole-3-carboxylic acid]
GI50 [1, 2]: 260 nM | Ki (Mcl-1): < 1 nM

Cc1cc(N2C[C@@H](C)n3c(c(CCCOc4cc(C)c(Cl)c(C)c4)c4ccc(Cl)c(-c5c(C)nc(CN6CCN(C)CC6)nc5C)c43)C2=O)c2c(c1)cc(C(=O)O)n2C [Example 426, (R)-7-(7-Chloro-10-(3-(4-chloro-3,5-dimethylphenoxy)propyl)-6-(4,6-dimethyl-2-((4-methylpiperazin-1-yl)methyl)pyrimidin-5-yl)-4-methyl-1-oxo-3,4-dihydropyrazino[1,2-a]indol-2(1H)-yl)-1,5-dimethyl-1H-indole-2-carboxylic acid]
GI50 [1, 2]: 250 nM | Ki (Mcl-1): < 1 nM
